In the assay the target is HDAC 1 (Homo sapiens, UniProt Q13547). Nature of the assay: HDAC 1 inhibition assay with about 3-hour enzyme/compound preincubation (fluorophore/quencher peptide substrate). The format is biochemical. The conditions noted are these: 3-hour preincubation of enzyme and compound at room temperature; read-out: HDAC 1 inhibitory activity (IC50 [μM]) (3-hour preincubation). The method, then:
HDAC inhibitory activity of the compound of Example 1 was measured by two types of assays in which HDAC 1 and 6 were used as a target molecule. The first assay was carried out without preincubation after addition of the enzyme. The test compound was suspended in and titrated in DMSO. It was then spotted into a 384-well test plate. The enzyme, HDAC 1 or 6, was diluted in assay buffer containing 25 mM Tris-HCl (pH 8.0), 137 mM NaCl, 2.7 mM KCl, and 0.01% Tween-20 and added to the pre-spotted compound. The peptide substrate containing a fluorophore/quencher pair was diluted in the same assay buffer and added to the compound/enzyme mix initiating the reaction. The reaction incubated at room temperature for about 45 minutes. A concentrated developer solution was diluted in the assay buffer, and added to the reaction. The reaction was incubated at room temperature for about 15 minutes and relative fluorescence was read on an instrument reader.
The second assay is similar to the first assay described above, except that preincubation is carried out for about 3 hours after the enzyme is introduced. The test compound was suspended in, and titrated in DMSO. It was then spotted into a 384-well test plate. The enzyme, HDAC 1 or 6, was diluted in the same assay buffer as used in the previous assay and added to the pre-spotted compound. The enzyme/compound mix was incubated at room temperature for about 3 hours. The peptide substrate containing a fluorophore/quencher pair was diluted in the assay buffer and added to the compound/enzyme mix initiating the reaction. The reaction incubated at room temperature for 45 minutes. A concentrated developer solution was diluted in the assay buffer, and added to the reaction. The reaction was incubated at room temperature for about 15 minutes and relative fluorescence was read on an instrument reader.
Sequence of HDAC 1 (Q13547 whole entry, species assumed): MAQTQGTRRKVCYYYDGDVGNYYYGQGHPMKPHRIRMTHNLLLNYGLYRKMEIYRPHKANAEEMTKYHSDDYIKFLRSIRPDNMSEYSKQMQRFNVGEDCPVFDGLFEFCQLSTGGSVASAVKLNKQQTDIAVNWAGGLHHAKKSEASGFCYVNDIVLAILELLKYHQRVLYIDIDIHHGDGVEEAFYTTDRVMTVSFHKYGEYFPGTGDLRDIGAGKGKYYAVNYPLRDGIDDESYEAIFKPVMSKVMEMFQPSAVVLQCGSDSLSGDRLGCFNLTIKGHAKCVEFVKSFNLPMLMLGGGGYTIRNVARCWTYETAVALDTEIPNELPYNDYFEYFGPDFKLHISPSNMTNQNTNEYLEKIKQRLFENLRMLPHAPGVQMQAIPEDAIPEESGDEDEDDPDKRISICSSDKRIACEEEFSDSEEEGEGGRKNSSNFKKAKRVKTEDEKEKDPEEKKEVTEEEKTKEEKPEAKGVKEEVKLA
Turning to `Nc1ccccc1NC(=O)c1ccc(C2(c3nc(-c4cccnc4)cs3)CCCC2)cc1` [Example 6, N-(2-Amino-phenyl)-4-[1-(4-pyridin-3-yl-thiazol-2-yl)-cyclopentyl]-benzamide], the IC50 (commonly the concentration needed to halve the response being measured) stood at 0.012 µM.

Regarding `CC(=O)c1sc(C2(c3ccc(C(=O)Nc4ccccc4N)cc3)CC2)nc1C` [Example 3, 4-[1-(5-Acetyl-4-methyl-thiazol-2-yl)-cyclopropyl]-N-(2-amino-phenyl)-benzamide], the IC50 amounted to 0.065 µM.

`Cc1nc2ccccn2c1-c1csc(C2(c3ccc(C(=O)Nc4ccccc4N)cc3)CCOCC2)n1` [Example 9, N-(2-Amino-phenyl)-4-{4-[4-(2-methyl-imidazo[1,2-a]pyridin-3-yl)-thiazol-2-yl]-tetrahydro-pyran-4-yl}-benzamide]: the IC50 came to 0.003 µM.

Take `Nc1ccc(-c2cccs2)cc1NC(=O)c1ccc(C2(c3nc(CN4CCCC4)cs3)CCOCC2)cc1` [Example 31, N-(2-amino-5-(thiophen-2-yl)phenyl)-4-(4-(4-(pyrrolidin-1-ylmethyl)thiazol-2-yl)tetrahydropyran-4-yl)benzamide]: the IC50 worked out at 0.001 µM.

For the compound `Cc1nc(C2(c3ccc(C(=O)Nc4cc(-c5ccc(F)cc5)ccc4N)cc3)CCOCC2)sc1C(C)O` (stereo not shown) [Example 61, N-(4-amino-4′-fluorobiphenyl-3-yl)-4-(4-(5-(1-hydroxyethyl)-4-methylthiazol-2-yl)tetrahydropyran-4-yl)benzamide], the IC50 came out at 0.00209 µM.

As to `Nc1ccccc1NC(=O)c1ccc(C2(c3nc4c(s3)COCC4)CCOCC2)cc1` [Example 26, N-(2-aminophenyl)-4-(4-(6,7-dihydropyrano[4,3-d]thiazol-2-yl)tetrahydropyran-4-yl)benzamide], the IC50 came out at 0.017 µM.

`Nc1ccc(-c2cccs2)cc1NC(=O)c1ccc(C2(c3nnn[nH]3)CCOCC2)cc1` [Example 38, 4-(4-(1H-tetrazol-5-yl)tetrahydropyran-4-yl)-N-(2-amino-5-(thiophen-2-yl)phenyl)benzamide]: the IC50 was found to be 0.00311 µM.

`Nc1ccc(-c2ccc(F)cc2)cc1NC(=O)c1ccc(C2(c3nccs3)CC2)cc1` [Example 48, N-(4-amino-4′-fluorobiphenyl-3-yl)-4-(1-(thiazol-2-yl)cyclopropyl)benzamide]: the IC50 was determined as 0.00294 µM.

Turning to `Nc1ccccc1NC(=O)c1ccc(C2(c3nc(-c4cccnc4)cs3)CC2)cc1` [Example 5, N-(2-Amino-phenyl)-4-[1-(4-pyridin-3-yl-thiazol-2-yl)-cyclopropyl]-benzamide], the IC50 came out at 0.012 µM.

Turning to `Nc1ccc(-c2ccc(Cl)s2)cc1NC(=O)c1ccc(C2(c3ccccn3)CCOCC2)cc1` [Example 60, N-(2-amino-5-(5-chlorothiophen-2-yl)phenyl)-4-(4-(pyridin-2-yl)tetrahydropyran-4-yl)benzamide], the IC50 amounted to 0.00616 µM.

On to `Nc1ccccc1NC(=O)c1ccc(C2(c3nc(-c4ccc(Cl)nc4)cs3)CCOCC2)cc1` [Example 18, N-(2-aminophenyl)-4-(4-(4-(6-chloropyridin-3-yl)thiazol-2-yl)tetrahydropyran-4-yl)benzamide], for which the 50% inhibitory concentration (IC50) was 0.0139 µM.

As to `Nc1ccccc1NC(=O)c1ccc(C2(c3nc(-c4ccc(N5CCN(C6CC6)CC5)nc4)cs3)CCOCC2)cc1` [Example 34, N-(2-aminophenyl)-4-(4-(4-(6-(4-cyclopropylpiperazin-1-yl)pyridin-3-yl)thiazol-2-yl)tetrahydropyran-4-yl)benzamide], the IC50 stood at 0.0066 µM.

`Nc1ccc(-c2cccs2)cc1NC(=O)c1ccc(C2(c3nc(-c4cccnc4)cs3)CCOCC2)cc1` [Example 22, N-(2-amino-5-(thiophen-2-yl)phenyl)-4-(4-(4-(pyridin-3-yl)thiazol-2-yl)tetrahydropyran-4-yl)benzamide]: the half-inhibitory concentration (IC50) was found to be 0.014 µM.

Consider `CN1CCc2nc(C3(c4ccc(C(=O)Nc5ccccc5N)cc4)CCOCC3)sc2C1` [Example 29, N-(2-aminophenyl)-4-(4-(5-methyl-4,5,6,7-tetrahydrothiazolo[5,4-c]pyridin-2-yl)tetrahydropyran-4-yl)benzamide], for which the IC50 was determined as 0.032 µM.

With `Nc1ccccc1NC(=O)c1ccc(C2(c3nc(-c4cccnc4)cs3)CCOCC2)cc1` [Example 8, N-(2-Amino-phenyl)-4-[4-(4-pyridin-3-yl-thiazol-2-yl)-tetrahydro-pyran-4-yl]-benzamide], the IC50 was 0.037 µM.

`CC(C)[C@H](N)C(=O)N1CCc2nc(C3(c4ccc(C(=O)Nc5ccccc5N)cc4)CC3)sc2C1` [Example 17, (S)-4-(1-(5-(2-amino-3-methylbutanoyl)-4,5,6,7-tetrahydrothiazolo[5,4-c]pyridin-2-yl)cyclopropyl)-N-(2-aminophenyl)benzamide]: the IC50 is 0.0982 µM.

As to `Nc1ccccc1NC(=O)c1ccc(C2(c3nc(-c4cnccn4)cs3)CCOCC2)cc1` [Example 41, N-(2-aminophenyl)-4-(4-(4-(pyrazin-2-yl)thiazol-2-yl)tetrahydropyran-4-yl)benzamide], the IC50 was found to be 0.00702 µM.

On to `CN1CCc2nc(C3(c4ccc(C(=O)Nc5cc(F)ccc5N)cc4)CCOCC3)sc2C1` [Example 30, N-(2-amino-5-fluorophenyl)-4-(4-(5-methyl-4,5,6,7-tetrahydrothiazolo[5,4-c]pyridin-2-yl)tetrahydropyran-4-yl)benzamide], for which the IC50 is 0.067 µM.

`CN1CCc2nc(C3(c4ccc(C(=O)Nc5cc(-c6ccc(F)cc6)ccc5N)cc4)CC3)sc2C1` [Example 56, N-(4-amino-4′-fluorobiphenyl-3-yl)-4-(1-(5-methyl-4,5,6,7-tetrahydrothiazolo[5,4-c]pyridine-2-yl)cyclopropyl)benzamide]: the IC50 was found to be 0.00325 µM.

Consider `COCCOc1ccc(-c2csc(C3(c4ccc(C(=O)Nc5ccccc5N)cc4)CCOCC3)n2)cn1` [Example 24, N-(2-aminophenyl)-4-(4-(4-(6-(2-methoxyethoxy)pyridin-3-yl)thiazol-2-yl)tetrahydropyran-4-yl)benzamide], for which the IC50 was found to be 0.013 µM.

As to `Nc1ccccc1NC(=O)c1ccc(C2(c3nccs3)CCOCC2)cc1` [Example 15], the IC50 worked out at 0.119 µM.

Take `Cc1csc(C2(c3ccc(C(=O)Nc4ccccc4N)cc3)CC2)n1` [Example 16, N-(2-aminophenyl)-4-(1-(4-methylthiazol-2-yl)cyclopropyl)benzamide]: the half-inhibitory concentration (IC50) came to 0.0988 µM.

As for `Nc1ccc(-c2ccc(F)cc2)cc1NC(=O)c1ccc(C2(c3nccs3)CCOCC2)cc1` [Example 36, N-(4-amino-4′-fluorobiphenyl-3-yl)-4-(4-(thiazol-2-yl)tetrahydropyran-4-yl)benzamide], the IC50 stood at 0.0029 µM.

`CC(=O)N1CCc2nc(C3(c4ccc(C(=O)Nc5ccccc5N)cc4)CCOCC3)sc2C1` [Example 27, 4-(4-(5-acetyl-4,5,6,7-tetrahydrothiazolo[5,4-c]pyridin-2-yl)tetrahydropyran-4-yl)-N-(2-aminophenyl)benzamide]: the IC50 was 0.019 µM.

As for `CN1CCN(c2ccc(-c3csc(C4(c5ccc(C(=O)Nc6ccccc6N)cc5)CCOCC4)n3)cn2)CC1` [Example 25, N-(2-aminophenyl)-4-(4-(4-(6-(4-methylpiperazin-1-yl)pyridin-3-yl)thiazol-2-yl)tetrahydropyran-4-yl)benzamide], the IC50 turned out to be 0.006 µM.

With `CC(=O)N1CCc2nc(C3(c4ccc(C(=O)Nc5cc(-c6cccs6)ccc5N)cc4)CCOCC3)sc2C1` [Example 28, 4-(4-(5-acetyl-4,5,6,7-tetrahydrothiazolo[5,4-c]pyridin-2-yl)tetrahydropyran-4-yl)-N-(2-amino-5-(thiophen-2-yl)phenyl)benzamide], the IC50 was 0.0026 µM.

For the compound `Nc1ccc(-c2cccs2)cc1NC(=O)c1ccc(C2(c3ccccn3)CCOCC2)cc1` [Example 49], the half-maximal inhibitory concentration (IC50) was 0.00247 µM.

For `Nc1ccc(-c2ccc(F)cc2)cc1NC(=O)c1ccc(C2(c3nnn[nH]3)CCOCC2)cc1` [Example 39, 4-(4-(1H-tetrazol-5-yl)tetrahydropyran-4-yl)-N-(4-amino-4′-fluorobiphenyl-3-yl)benzamide], the IC50 turned out to be 0.00333 µM.

Source of the values: patent publication US8198299B2, “Cycloalkylidene and heterocycloalkylidene inhibitor compounds” (Gilead Sciences, Inc., priority 2008, dated 2012).
